Results reported in patent publication US11078496B2, “System for F-box hormone receptor regulated protein expression in mammalian cells” (ICAHN SCHOOL OF MEDICINE AT MOUNT SINAI, priority 2016, dated 2021).
Read-outs that look alike come from different tables or passages of the source.

Assays:
AID^47-CHK1 (A-CHK1) = target: T1, AID^47-CHK1 (A-CHK1) (UniProt P93830+Q7XVM8); test: Auxin-dependent depletion of A-CHK1 in mESCs (western blot); type: cell-based, mouse
T1 construct: (encoding NP_001052659); 47-amino acid segment that corresponds to amino acids 63-109 of A. thaliana IAA17; expressed in transfected cells; host or cells: CCE mESCs (lentiviral pRAIDRS)
Method: FIG. 5A is a western blot analysis depicting endogenous CHK1 (*) and AID^47-CHK1 (A-CHK1, **) in four selected clones and in parental non-infected mESCs. […] serves as a loading control. Experiment was repeated three times for clones #1 and #2, and a representative blot is presented. In FIG. 5B, A-CHK1 #2 mESCs were treated with ethanol (“Con”) or auxin (“IAA”) for 1 day. Cells were then treated with the indicated concentrations of aphidicolin (“Aph”). Equal concentrations of DMSO were applied to all conditions. The next day, cells were stained with crystal violet and plates were scanned. […] In FIG. 5C, mESC clones were pretreated with […] aphidicolin for 1 day and were then treated with auxin for the indicated time periods. Left panel: mitotic index was calculated as the percentage of H3^pS10-positive cells with 4N DNA content, measured by flow cytometry. Right panel: dot plots for A-CHK1 #2 mESCs treated with auxin for 0 or 45 minutes. Mitotic cells are gated. FIG. 5D show bright-field microscope images of cells treated as in FIG. 5C. Images show synchronous cell rounding, a feature of late mitotic cells, 2 hours following auxin treatment in aphidicolin-treated A-CHK1 #2 cells. FIG. 5E is a western blot analysis of cells treated as in FIG. 5C. Tyr15 phosphorylation of CDK1 (“CDKlpY^15”) was detected using a phospho-specific antibody. β-Actin serves as a loading control. […] Error bars represent standard deviation of three technical replicates. […]
Cells were lysed in RIPA-B buffer (20 mM Na2HPO4 pH 7.4, 150 mM NaCl and 1% Triton X-100) supplemented with Protease Inhibitor Cocktail (Roche) for 30 minutes on ice with occasional vortexing, followed by 30 minutes centrifugation at 13,000 relative centrifugal force at 4° C. […] Luminescence was detected with X-ray films, which were scanned, or using the Bio-Rad ChemiDoc MP System. […] Quantification of protein level was performed using the ImageJ software (Schneider et al., “NIH Image to ImageJ: 25 Years of Image Analysis,” Nat. Methods 9:671-675 2012), which is hereby incorporated by reference in its entirety). […]

[1] = tested on: AID-fused proteins in mammalian cells; settings: cited from earlier work

T1 sequence (Q7XVM8 whole entry, the tested form may be a part): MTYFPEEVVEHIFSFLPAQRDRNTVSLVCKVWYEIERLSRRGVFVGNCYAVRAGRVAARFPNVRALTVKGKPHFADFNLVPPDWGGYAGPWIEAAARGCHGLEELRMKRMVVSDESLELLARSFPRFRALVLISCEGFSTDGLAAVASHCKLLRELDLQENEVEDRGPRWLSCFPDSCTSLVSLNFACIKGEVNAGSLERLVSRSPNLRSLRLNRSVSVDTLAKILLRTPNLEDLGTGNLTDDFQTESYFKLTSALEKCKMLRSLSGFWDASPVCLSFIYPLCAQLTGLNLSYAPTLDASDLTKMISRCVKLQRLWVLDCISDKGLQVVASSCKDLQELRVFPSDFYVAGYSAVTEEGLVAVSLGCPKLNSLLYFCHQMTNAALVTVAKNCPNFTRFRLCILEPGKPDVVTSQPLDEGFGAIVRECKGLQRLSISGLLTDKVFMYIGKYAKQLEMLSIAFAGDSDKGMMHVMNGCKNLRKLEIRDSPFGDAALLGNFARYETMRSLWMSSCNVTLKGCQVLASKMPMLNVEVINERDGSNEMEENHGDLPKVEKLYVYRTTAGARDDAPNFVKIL
T1 sequence (P93830 63-109): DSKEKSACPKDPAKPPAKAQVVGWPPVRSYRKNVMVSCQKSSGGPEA

Compound: O=C(O)Cc1c[nH]c2ccccc12 [auxin, indole-3-acetic acid]
- time of auxin-dependent depletion of CHK1 (AID^47-CHK1 (A-CHK1); aphidicolin-treated mESCs): 20 min
- time for >95% degradation of CHK1 (AID^47-CHK1 (A-CHK1); pRAIDRS system, auxin-dependent protein depletion): 20 to 30 min
- auxin-dependent degradation of A-CHK1 (AID^47-CHK1 (A-CHK1); selected mESC clones, western blot): complete auxin-dependent degradation
- rapidity of auxin-dependent protein depletion ([1]; reported by Han et al.): ~90 min
- rapidity of auxin-dependent protein depletion ([1]; reported by Holland et al.): 60 to 100 min
- rapidity of auxin-dependent protein depletion ([1]; reported by Lambrus et al.): 10 to 30 min
- rapidity of auxin-dependent protein depletion ([1]; reported by Rodriguez-Bravo et al.): > 120 min
